Tests used:
[1] = system: Fc-kit1T (DNA, G4) AGGGAGGGCGCTGGGAGGAGGG; assay: microscale thermophoresis; details: 100 mM K+; 10 mM Tris-HCl pH 7.4
[2] = system: FPu18T (DNA, G4) AGGGTGGGGAGGGTGGGG; assay: FRET melting; details: 60 mM K+; 0.2 μM DNA, 1.0 μM compound (methods text: 2 μM, 100 mM LiCl); cacodylate pH 7.4
[3] = system: F21T (DNA, G4) GGGTTAGGGTTAGGGTTAGGG; assay: FRET melting; details: 60 mM K+; 0.2 μM DNA, 1.0 μM compound (methods text: 2 μM, 100 mM LiCl); cacodylate pH 7.4
[4] = system: Fc-kit1T (DNA, G4) AGGGAGGGCGCTGGGAGGAGGG; assay: FRET melting; details: 60 mM K+; 0.2 μM DNA, 1.0 μM compound (methods text: 2 μM, 100 mM LiCl); cacodylate pH 7.4
[5] = system: F10T (DNA, hairpin, hexaethylene glycol (HEG) linker between nucleotides 10 and 11) TATAGCTATATATAGCTATA; assay: FRET melting; details: 60 mM K+; 0.2 μM DNA, 1.0 μM compound (methods text: 2 μM, 100 mM LiCl); cacodylate pH 7.4

Row | Structure (SMILES) | Kd [1] [µM] | ΔTm [2] [°C] | ΔTm [3] [°C] | ΔTm [4] [°C] | ΔTm [5] [°C]
1 | COc1cc2c(cc1OC)-c1cc3ccc(OC)c(OC)c3c[n+]1CC2 | 3.25 ± 0.32 | 11.2 ± 0.1 | 1.8 ± 0.2 | – | –
2 | COc1cc2c(cc1OC)-c1cc3ccc(OC)c(OCC(=O)N[C@@H](CCCCN)C(=O)N[C@@H](CCCNC(=N)N)C(N)=O)c3c[n+]1CC2 | 2.65 ± 0.33 | – | – | – | –
3 | COc1cc2c(cc1OC)-c1cc3ccc(OC)c(OCC(=O)N[C@@H](Cc4ccccc4)C(=O)NCC(=O)N[C@@H](CCCCN)C(N)=O)c3c[n+]1CC2 | 11.10 ± 0.51 | 5.0 ± 1.0 | – | 6.1 ± 0.9 | –
4 | COc1cc2c(cc1OC)-c1cc3ccc(OC)c(OCC(=O)N[C@@H](CCCCN)C(=O)N[C@@H](Cc4ccccc4)C(=O)N[C@@H](CCCNC(=N)N)C(N)=O)c3c[n+]1CC2 | 8.00 ± 0.89 | – | 0.0 ± 1.2 | – | –
5 | COc1cc2c(cc1OC)-c1cc3ccc(OC)c(OCC(=O)N[C@@H](Cc4ccccc4)C(=O)N[C@@H](Cc4cnc[nH]4)C(=O)N[C@@H](CCCNC(=N)N)C(N)=O)c3c[n+]1CC2 | 9.68 ± 0.57 | – | – | – | 0.0 ± 1.0
6 | COc1cc2c(cc1OC)-c1cc3ccc(OC)c(OCC(=O)N[C@@H](Cc4ccccc4)C(=O)N[C@@H](CCCNC(=N)N)C(N)=O)c3c[n+]1CC2 | 1.41 ± 0.09 | 23.8 ± 0.6 | 11.0 ± 0.1 | 21.7 ± 0.8 | 0.8 ± 0.4
7 | COc1cc2c(cc1OC)-c1cc3ccc(OC)c(OCC(=O)N[C@@H](CCCNC(=N)N)C(=O)N[C@@H](CCCNC(=N)N)C(N)=O)c3c[n+]1CC2 | 1.47 ± 0.12 | 19.6 ± 0.9 | 10.6 ± 0.2 | – | –
8 | COc1cc2c(cc1OC)-c1cc3ccc(OC)c(OCC(=O)N[C@@H](Cc4ccccc4)C(=O)N[C@@H](CCCCN)C(=O)N[C@@H](CCCN=C(N)N)C(N)=O)c3c[n+]1CC2 | 6.60 ± 0.472 | – | – | – | –

Reference: article PMC6100468 (2018)
